Key:
[1] = Osmolality of the solution at 200 mg (I + Gd)/ml; type: physicochemical; conditions: prior-art compounds as Na-salt
[2] = BuOH/H2O distribution coefficient; type: physicochemical; conditions: butanol/water
Mouse = test: LD50 (Mouse), acute toxicity; type: in vivo

Row | Structure (SMILES) | Osmolality 200 mg (I + Gd)/ml [1] [mosmol/l] | BuOH/H2O Distribution Coefficient [2] | LD50 (Mouse) (Mouse)
1 | O=C([O-])CN1CCN(CC(=O)[O-])CCN(CC(=O)NCCNC(=O)c2c(I)c(NC(=O)CN3CCN(CC(=O)[O-])CCN(CC(=O)[O-])CCN(CC(=O)[O-])CC3)c(I)c(C(=O)NCCNC(=O)CN3CCN(CC(=O)[O-])CCN(CC(=O)[O-])CCN(CC(=O)[O-])CC3)c2I)CCN(CC(=O)[O-])CC1.[Gd+3].[Gd+3].[Gd+3] [Example 7, 2,4,6-Triiodo-5-({10-[1,4,7-tris-(carboxymethyl)-1,4,7,10-tetraazacyclododecanyl]}acetyl, Gd-complex)aminoisophthalic acid-N,N-bis-(3-aza-4-oxopentane-1,5-diyl-{10-[1,4,7-tris-(carboxymethyl)-1,4,7,10-tetraazacyclododecanyl, Gd-complex]})amide] | 334 | 0.00005 | >12.0 g(I + Gd)/ g(I + Gd)/kg
2 | CC(C(=O)NCCNC(=O)c1c(I)c(C(=O)NCCNC(=O)C(C)N2CCN(CC(=O)[O-])CCN(CC(=O)[O-])CCN(CC(=O)[O-])CC2)c(I)c(N(C)C(=O)C(C)N2CCN(CC(=O)[O-])CCN(CC(=O)[O-])CCN(CC(=O)[O-])CC2)c1I)N1CCN(CC(=O)[O-])CCN(CC(=O)[O-])CCN(CC(=O)[O-])CC1.[Gd+3].[Gd+3].[Gd+3] (stereo not drawn) [Example 1, 2,4,6-Triiodo-5-(2-{10-[1,4,7-tris-(carboxymethyl)-1,4,7,10-tetraazacyclododecanyl]}propionyl, Gd-complex)methylaminoisophthalic acid-N,N-bis-(3-aza-5-methyl-4-oxopentane-1,5-diyl-{10-[1,4,7-tris-(carboxymethyl)-1,4,7,10-tetraazacyclododecanyl,Gd-complex]})amide] | 358 | 0.00005 | >12.0 g(I + Gd)/ g(I + Gd)/kg
3 | CN(C(=O)CN1CCN(CC(=O)[O-])CCN(CC(=O)[O-])CCN(CC(=O)[O-])CC1)c1c(I)c(C(=O)NCCNC(=O)CN2CCN(CC(=O)[O-])CCN(CC(=O)[O-])CCN(CC(=O)[O-])CC2)c(I)c(C(=O)NCCNC(=O)CN2CCN(CC(=O)[O-])CCN(CC(=O)[O-])CCN(CC(=O)[O-])CC2)c1I.[Gd+3].[Gd+3].[Gd+3] [Example 5, 2,4,6-Triiodo-5-({10-[1,4,7-tris-(carboxymethyl)-1,4,7,10-tetraazacyclododecanyl]}acetyl, Gd-complex)methylaminoisophthalic acid-N,N-bis-(3-aza-4-oxopentane-1,5-diyl-{10-[1,4,7-tris-(carboxymethyl)-1,4,7,10-tetraazacyclododecanyl, Gd-complex]})amide] | 371 | 0.00006 | >12.0 g(I + Gd)/ g(I + Gd)/kg
4 | CC(C(=O)NCC(=O)NCCNC(=O)c1c(I)c(C(=O)NCCNC(=O)CNC(=O)C(C)N2CCN(CC(=O)[O-])CCN(CC(=O)[O-])CCN(CC(=O)[O-])CC2)c(I)c(N(C)C(=O)C(C)N2CCN(CC(=O)[O-])CCN(CC(=O)[O-])CCN(CC(=O)[O-])CC2)c1I)N1CCN(CC(=O)[O-])CCN(CC(=O)[O-])CCN(CC(=O)[O-])CC1.[Gd+3].[Gd+3].[Gd+3] (mixture of isomers) [Example 8, 2,4,6-Triiodo-5-(2-{10-[1,4,7-tris-(carboxymethyl)-1,4,7,10-tetraazacyclododecanyl]}propionyl, Gd-complex)methylaminoisophthalic acid-N,N-bis-(3,6-diaza-4,7-dioxo-8-methyloctane-1,5-diyl-{10-[1,4,7-tris-(carboxymethyl)-1,4,7,10-tetraazacyclododecanyl, Gd-complex]})amide] | 346 | 0.00005 | >12.0 g(I + Gd)/ g(I + Gd)/kg

From patent publication US7385054B2, “Trimeric, macrocyclically substituted halo-benzene derivatives” (Schering AG, priority 2004, dated 2008)
